Patent US20210015725A1, “SKINCARE PRODUCT AND METHOD OF PREPARATION THEREOF” (FE:I BEAUTY TECH, INC., priority 2012, published 2021)

Tests used:
[1] = molecular target: Ferritin (Homo sapiens, UniProt P02792+P02794); test: Reduction of iron from ferritin by vitamin C; type: biochemical
Method: Reduction of iron from ferritin by vitamin C: Ferritin at a concentration of 1 mg/ml was incubated with various concentrations of vitamin C (0-500 μM). […] Levels of iron in the filtrates were measured by Ferrozine (Sigma, St. Louis, Mo.), which forms a stable magenta-colored complex (Fe^2+-ferrozine) with a maximum absorption at 560 nm. In brief, 30 μl sample was added to 135 μl buffer. After 10 min incubation at 37° C., the absorbance was measured at 560 nm using a UV—visible microplate reader (SpectraMax Plus, Molecular Devices, Sunnyvale, Calif.). Then, 5 μl iron chromogenic agent (ferrozine) was added and after 15 min incubation, the absorbance was measured again at 560 nm. The difference in absorbance was used to calculate iron concentration after comparing to the iron standard curve. To determine whether iron is completely released from ferritin, atomic absorption (AA) was used to measure total iron in ferritin.

[2] = calcium carbonate 0-10%, various time periods of incubation
Method: Precipitation of iron by calcium carbonate: Iron was added to extracellular matrix, followed by the addition of different concentrations of calcium carbonate (0-10%) (FIG. 5). After various time periods of incubation, a small part of the mixture was filtered using a membrane with a molecular weight cutoff of 5,000 Dalton as previously described in FIG. 4. Levels of iron in the filtrates were determined by Ferrozine.

Ferritin, sequence (P02794 whole entry, species assumed): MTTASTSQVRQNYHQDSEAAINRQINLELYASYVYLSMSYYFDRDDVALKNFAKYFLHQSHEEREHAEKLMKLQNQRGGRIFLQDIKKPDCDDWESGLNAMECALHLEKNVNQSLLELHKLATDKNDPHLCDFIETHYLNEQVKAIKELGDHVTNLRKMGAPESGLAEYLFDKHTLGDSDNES
Ferritin, sequence (P02792 whole entry, species assumed): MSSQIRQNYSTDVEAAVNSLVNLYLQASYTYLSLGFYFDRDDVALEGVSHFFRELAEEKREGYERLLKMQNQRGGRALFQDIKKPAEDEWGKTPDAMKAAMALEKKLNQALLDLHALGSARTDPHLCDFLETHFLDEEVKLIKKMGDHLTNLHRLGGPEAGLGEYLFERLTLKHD

completeness of iron release from ferritin (atomic absorption, total iron) ([1]; after vitamin C reduction) | Structure (SMILES) | release of iron from ferritin (iron in filtrates measured by Ferrozine) ([1]; ferritin 1 mg/ml, vitamin C 0-500 μM, one hour incubation) | precipitation of iron (iron in filtrates by Ferrozine) [2]
all iron in ferritin is released | O=C1O[C@H]([C@@H](O)CO)C(O)=C1O [vitamin C] | effective in releasing iron from ferritin | 
 | O=C([O-])[O-].[Ca+2] [calcium carbonate] |  | can effectively precipitate iron
